Source: US20140162974A1, “METHODS FOR MODULATION OF PHOSPHORUS AND FGF23” (Luitpold Pharmaceuticals, Inc., priority 2012, published 2014)

Tests used:
Phosphorus = test: VIT-23 study: phosphorus at study visits; type: in vivo, human
Procedure: (§1) Subjects with a hemoglobin (Hgb) that meets inclusion requirements and no exclusionary criteria will be offered participation in this 5-6 week study.
(§2) During the Treatment Phase, all subjects received a maximum dose of 1000 mg of IV iron. […] If no reaction occurred, the remainder of the dose (up to 15 mg/kg or 1000 mg including the test dose) was given as per Investigator. The infusion was given only when resuscitative techniques for the treatment of anaphylactic and anaphylactoid reactions were readily available.
(§3) Primary Endpoints included changes in blood and urine markers of phosphate and bone metabolism following IV iron administration. Blood markers include (all performed in morning after 10 hr fast): Serum Phosphate; Serum Potassium; Plasma Fibroblast growth factor 23 via 2nd generation Immutopics C-terminal assay; Serum Vitamin D; 1, 25 dihydroxy Vitamin D (1,25 [OH]2D); 25 hydroxy Vitamin D (250H-D); Serum Osteocalcin; Serum Bone-specific Alkaline phosphatase; Plasma intact Parathyroid hormone; Serum creatinine; Hepcidin; Reticulocyte count; Hemoglobin; Ferritin; Transferrin Saturation (TSAT); and Sample for archive. Urine markers (collected over a 3 hour period in the morning) (ratio of phosphate to creatinine determined to offset inter-patient variability in urine concentration) include: Phosphate; Creatinine; Calcium; Amino acids; Glucose; Albumin; Deoxypyridinoline cross link (Dpd)—a collagen type I cross link that indicates bone resorption; Beta-2-microglobulin; and Sample for archive.
(§4) All subjects had laboratory assessments at Screening, Day 0, Day 1 (24 hrs), Day 7, Day 14, and Day 35. Any subject with a change in phosphate value after Day 0 had additional phosphate measurements at 14 day intervals (following Day 35) until the level returned to normal (as defined by the laboratory reference range). Safety evaluation for all subjects included adverse events, physical examination, including vital signs, and laboratory assessments. Three hour urine collections was also performed on Day 0, Day 1 (24 hrs), Day 7, Day 14, and Day 35. Any subject who withdrew from the study will receive a follow up phone call 30 days after they received study drug.
(§5) The “baseline” was the value at Day 0 prior to administration of any study drug. The value of “n” for the baseline measurement may have be different at each study visit because the baseline values were assessed only for those individuals with data at the given visit.

FGF-23 C-Terminal = test: VIT-23 study: plasma FGF-23 C-terminal assay; type: in vivo, human
Procedure: as §1, §2, §3, §4, §5

[1] = test system: hemoglobin, ferritin, TSAT; test: VIT-30 efficacy: hemoglobin and iron indices; type: in vivo, human
Procedure: (§6) Study visits were on Days 0, 3, 7, 10, 14, 28, 56, and 120. A phone assessment occurred on Day 90.
The Venofer Group received 5 doses of Venofer, 200 mg for a total dose of 1,000 mg.
For Venofer, subjects received, as an IV push injection over 2 to 5 minutes, 200 mg on Days 0, 7, and 14 with 2 additional doses given: 1 between Days 0 and 7 and the other between Days 7 and 14 (i.e., for a total of 5 doses [1,000 mg]).
For efficacy, the primary efficacy measure was the mean change from baseline to the highest observed hemoglobin any time between baseline and end of treatment period (Day 56) or time of intervention. Supportive efficacy measures included the following: (a) proportion of subjects achieving an increase in hemoglobin of ≧1 g/dL any time between baseline and end of treatment period (Day 56) or time of intervention; (b) mean change from baseline to the highest observed ferritin any time between baseline and treatment period (Day 56) or time of intervention; (c) mean change from baseline to the highest observed TSAT any time between baseline and treatment period (Day 56) or time of intervention; and (d) mean change from baseline to the pre-dosing value on Day 7 for hemoglobin, ferritin, and TSAT.
The hemoglobin baseline was defined as the average of the last 2 hemoglobin values from the central laboratory prior to the first dose of study drug. If only 1 centrally-measured hemoglobin value was available prior to the first dose of study drug, the single value was used for baseline. Non-inferiority was concluded if the lower limit of the 2-sided CI was ≧−0.075. This non-inferiority margin preserved >50% of the difference from oral iron observed previously.
The mean change from baseline to highest TSAT and ferritin was assessed for treatment group differences with the 95% 2-sided CI (based on normal distribution, assuming equal variances). Mean change from baseline to each scheduled visit was similarly assessed for hemoglobin, TSAT, ferritin, serum iron, total iron binding capacity, and unsaturated iron binding capacity. Baseline was calculated as described above. Assessments were assigned to scheduled visits as follows (if the assessment was on a dosing day for IV iron, the assessment before dosing was selected): • Day 7: Assessments on Days 4 through 10. • Day 14: Assessments on Days 11 through 21. • Day 28: Assessments on Days 22 through 35. • Day 56: Assessments on Days 50 through 63.

FGF-23 = test: VIT-30: FGF-23; type: in vivo, human
From the text: FIG. 1 is a line and scatter plot showing mean changes in phosphate (left vertical axis) or changes in FGF-23 (right vertical axis) with respect to baseline value at each study day (0, 7, 14, 28, or 56) as indicated on the Horizontal (X) axis for trial VIT30. […] Further details regarding methodology are provided in Example 2.
as §6
For quantitative baseline characteristics, the association with FGF-23 at Screening was evaluated with Pearson product moment and Spearman correlations. For qualitative baseline characteristics, the association with FGF-23 at Screening was evaluated with mean differences in FGF-23 among categories of the baseline characteristic.
Descriptive statistics for FGF-23 at Screening (mean, median, standard deviation, quartiles, minimum, and maximum) were summarized for subgroups.

[2] = Intra-arterial, perivenous, or intravenous tolerance studies; type: in vivo, rabbit; conditions: intra-arterial
[3] = Acute toxicity relative to iron sucrose; conditions: in vivo
From the text: FCM can mimic physiologically occurring ferritin. FCM is metabolized by the glycolytic pathway.

[4] = Day 7 after single IV dose up to 1000 mg iron
[5] = Day 14 after single IV dose up to 1000 mg iron
[6] = Day 35 after single IV dose up to 1000 mg iron

Substance	Phosphorus, Visit, Mean (Phosphorus; [4]) [mg/dL]	Phosphorus, Change to Visit, Max (Phosphorus; Day 7 vs baseline) [mg/dL]	Phosphorus, Change to Visit, Mean (Phosphorus; Day 7 vs baseline) [mg/dL]	Phosphorus, Change to Visit, Median (Phosphorus; Day 7 vs baseline) [mg/dL]	Phosphorus, Change to Visit, Min (Phosphorus; Day 7 vs baseline) [mg/dL]	Phosphorus, Visit, Mean (Phosphorus; [5]) [mg/dL]	Phosphorus, Change to Visit, Max (Phosphorus; Day 14 vs baseline) [mg/dL]	Phosphorus, Change to Visit, Mean (Phosphorus; Day 14 vs baseline) [mg/dL]	Phosphorus, Change to Visit, Median (Phosphorus; Day 14 vs baseline) [mg/dL]	Phosphorus, Change to Visit, Min (Phosphorus; Day 14 vs baseline) [mg/dL]	Phosphorus, Visit, Mean (Phosphorus; [6]) [mg/dL]	Phosphorus, Change to Visit, Max (Phosphorus; Day 35 vs baseline) [mg/dL]	Phosphorus, Change to Visit, Mean (Phosphorus; Day 35 vs baseline) [mg/dL]	Phosphorus, Change to Visit, Median (Phosphorus; Day 35 vs baseline) [mg/dL]	Phosphorus, Change to Visit, Min (Phosphorus; Day 35 vs baseline) [mg/dL]	FGF-23 C-Terminal, EDTApl-RUO, Visit, Mean (FGF-23 C-Terminal; Day 1) [RU/mL]	FGF-23 C-Terminal, EDTApl-RUO, Change to Visit, Mean (FGF-23 C-Terminal; Day 1 vs baseline) [RU/mL]	FGF-23 C-Terminal, EDTApl-RUO, Visit, Mean (FGF-23 C-Terminal; Day 7) [RU/mL]	FGF-23 C-Terminal, EDTApl-RUO, Change to Visit, Mean (FGF-23 C-Terminal; Day 7 vs baseline) [RU/mL]	FGF-23 C-Terminal, EDTApl-RUO, Visit, Mean (FGF-23 C-Terminal; Day 14) [RU/mL]	further results
iron dextran [reference compound]	3.55	1.2	-0.07	-0.1	-0.9	3.58	1.4	-0.06	0.1	-1.5	3.55	1.3	-0.08	-0.1	-1.3	151.60	−716.03	114.13	−682.42	107.39	FGF-23 C-Terminal, EDTApl-RUO, Change to Visit, Mean (FGF-23 C-Terminal; Day 14 vs baseline): −733.96 RU/mL; FGF-23 C-Terminal, EDTApl-RUO, Visit, Mean (FGF-23 C-Terminal; Day 35): 360.71 RU/mL; FGF-23 C-Terminal, EDTApl-RUO, Change to Visit, Mean (FGF-23 C-Terminal; Day 35 vs baseline): −683.57 RU/mL; FGF-23 C-Terminal, EDTApl-RUO, Visit, Mean (FGF-23 C-Terminal; Minimum post-baseline value): 94.00 RU/mL; FGF-23 C-Terminal, EDTApl-RUO, Change to Visit, Mean (FGF-23 C-Terminal; Minimum value vs baseline): −732.67 RU/mL
polynuclear iron (III)-hydroxide 4(R)-(poly-(1→4)-O-α-glucopyranosyl)-oxy-2(R),3(S),5(R),6-tetrahydroxy-hexanoate [FCM]	2.51	0.7	-0.87	-0.8	-2.3	3.42	0.7	-0.92	-0.7	-3.5	3.92	1.0	-0.38	-0.2	-1.9	176.80	−648.30	165.23	−699.73	170.12	FGF-23 C-Terminal, EDTApl-RUO, Change to Visit, Mean (FGF-23 C-Terminal; Day 14 vs baseline): −584.59 RU/mL; FGF-23 C-Terminal, EDTApl-RUO, Visit, Mean (FGF-23 C-Terminal; Day 35): 141.56 RU/mL; FGF-23 C-Terminal, EDTApl-RUO, Change to Visit, Mean (FGF-23 C-Terminal; Day 35 vs baseline): −692.29 RU/mL; FGF-23 C-Terminal, EDTApl-RUO, Visit, Mean (FGF-23 C-Terminal; Minimum post-baseline value): 98.73 RU/mL; FGF-23 C-Terminal, EDTApl-RUO, Change to Visit, Mean (FGF-23 C-Terminal; Minimum value vs baseline): −684.57 RU/mL; proportion of subjects with an increase in hemoglobin ≧1.0 g/dL, FCM compared with Venofer ([1]; anytime between baseline and Day 56 or time of intervention): statistically significantly greater; mean increases in ferritin, TSAT, serum iron and mean decreases in TIBC and unsaturated IBC, FCM compared with Venofer ([1]; baseline to highest value between baseline and Day 56 or time of intervention): statistically significantly greater; mean increase in hemoglobin from baseline to highest value, FCM compared with Venofer ([1]; between baseline and Day 56 or time of intervention): statistically significantly greater; noninferiority test on mean increase in hemoglobin, FCM to Venofer ([1]; lower limit of 2-sided 95% CI ≧−0.2): noninferiority; noninferiority test on proportion with hemoglobin increase ≧1.0 g/dL, FCM to Venofer ([1]; overall population, 2-sided 95% CI): noninferiority; changes in FGF-23 with respect to baseline (FIG. 1) (FGF-23; Days 7, 14, 28, 56, trial VIT30): almost always decreases with respect to baseline (except for FCM on Day 14); FGF 23 change from baseline to Day 56 within group (FGF-23; in vivo): statistically significant decrease; treatment-related local tissue irritation [2]: No treatment-related local tissue irritation was observed; acute toxicity relative to iron sucrose [3]: one-fifth
